For experiment [1], the system named is S. cerevisiae strain AN63. Description: Growth rate in stable sugar conditions (5% galactose) with antimycin A. The format is cell-based. Conditions: 41 respiratory deletion mutants, compared with slowest growing mutants without the compound (FIG. 2D). How it is done:
(§1) All population growth measurements were performed using Bioscreen C machines (Growth Curves USA). For the gradual shift experiments, cells were inoculated in a 96-well plate containing YP plus 5% glucose (high-glucose [HG]) medium and serially diluted for growth overnight at 30° C. shaking at 900 rpm. Cultures at an OD600 of 0.1 were transferred to a new plate and serially diluted in fresh HG medium for growth overnight. The next day, cultures at an OD600 of 0.1 were washed three times into YP plus 0.5% glucose (low glucose [LG]) plus the appropriate carbohydrate source, with or without 3 μg/ml of antimycin A, and diluted so that the initial cell concentration for the Bioscreen C measurements was 10^5 cells/ml. OD600 measurements were taken every 15 min for 7 days or until the cultures reached stationary phase.
The same procedure was followed for the stationary growth experiments, replacing the HG medium from pregrowth and the final growth medium with 5% galactose. […]
(§2) The growth rate was then obtained by calculating the discrete derivative of In(OD600,me) versus time. […] In the case of two exponential phases in the growth curve (i.e., conditions with a mix of carbon sources in the medium), the maximum growth rate for each phase (maxR1, maxR2) was detected. Once these parameters were determined, the lag time was calculated by the time difference between two time points: the start and the end. […]

For experiment [2], the system named is S. cerevisiae strain AN63. Description: Population growth lag time measurement, gradual glucose-to-galactose shift with antimycin A. Type of experiment: cell-based. Conditions: 3 μg/ml antimycin A in medium; 0.5% glucose plus 5% galactose; wild type and 41 respiratory deletion mutants (FIG. 2B). Here is the method:
Population Growth Lag Time Measurements (Antimycin a Treatment and Glucose-to-Galactose Shift).
as §1, with “OD600 measurements were taken every 15 min for 7 days or until the cultures reached stationary phase.” left out
where the cx subscript stands for corrected and the me subscript stands for measured.
as §2

On to antimycin A, for which the “growth rate in the presence of antimycin A” value in experiment [1] is given as “equally low growth rates”. Besides, the “prolongation of the lag times” value in experiment [2] was “up to 2.2 fold”.

(Values after patent publication US20220119460A1, “Means and Methods to Overrule Glucose-Mediated Repression of Respiration in Yeast” (priority 2019, published 2022).)
